Legend:
Type in all cases: in vivo
[1] = test system: Abutilon; assay: Pre-emergent herbicidal action (B.2); conditions: 500 bis 2000 [g/ha], evaluated after 3 weeks
Description: (§1) Im Gewächshaus wird unmittelbar nach der Einsaat der Versuchspflanzen in Saatschalen die Erdoberfläche mit einer wässrigen Dispersion der Wirkstoffe, erhalten aus einem 25 %igen Emulsionskonzentrat behandelt. Es werden Konzentrationen von 2000-500 g Wirksubstanz/Hektar angewendet. Die Saatschalen werden im Gewächshaus bei 22-25° C und 50-70 % relativer Luftfeuchtigkeit gehalten und der Versuch nach 3 Wochen ausgewertet und die Resultate nach folgender Notenskala ausgewertet. • 1 Pflanze hat nicht gekeimt oder ist eingegangen • 2-3 sehr starke Schäden • 4 starke Schäden • 5 mittlere Schäden, die Pflanzen sind verkümmert • 6 Schäden, die Pflanze kann regenerieren • 7-8 leichte Schäden • 9 normales Wachstum, wie das unbehandelter Pflanzen
(§2) Boniturnoten von 1 bis 4 (insbesondere von 1 bis 3) weisen auf eine gute bis sehr gute Herbizidwirkung hin. Boniturnoten von 6 bis 9 (insbesondere 7 bis 9) weisen auf eine gute Toleranz (insbesondere bei Kulturpflanzen) hin.

[2] = test system: Alopecurus myos.; assay: Pre-emergent herbicidal action (B.2); conditions: 500 bis 2000 [g/ha], evaluated after 3 weeks
Description: as §1, §2

[3] = test system: Amaranthus ret.; assay: Pre-emergent herbicidal action (B.2); conditions: 500 bis 2000 [g/ha], evaluated after 3 weeks
Description: as §1, §2

[4] = test system: Avena fatua; assay: Pre-emergent herbicidal action (B.2); conditions: 500 bis 2000 [g/ha], evaluated after 3 weeks
Description: as §1, §2

[5] = test system: Bromus tectorum; assay: Pre-emergent herbicidal action (B.2); conditions: 500 bis 2000 [g/ha], evaluated after 3 weeks
Description: as §1, §2

[6] = test system: Chenopodium Sp.; assay: Pre-emergent herbicidal action (B.2); conditions: 500 bis 2000 [g/ha], evaluated after 3 weeks
Description: as §1, §2

[7] = test system: Chrysanthe. leuc.; assay: Pre-emergent herbicidal action (B.2); conditions: 500 bis 2000 [g/ha], evaluated after 3 weeks
Description: as §1, §2

[8] = test system: Digitaria sang.; assay: Pre-emergent herbicidal action (B.2); conditions: 500 bis 2000 [g/ha], evaluated after 3 weeks
Description: as §1, §2

[9] = test system: Echinochloa crus galli; assay: Pre-emergent herbicidal action (B.2); conditions: 500 bis 2000 [g/ha], evaluated after 3 weeks
Description: as §1, §2

[10] = test system: Galium aparine; assay: Pre-emergent herbicidal action (B.2); conditions: 500 bis 2000 [g/ha], evaluated after 3 weeks
Description: as §1, §2

[11] = test system: Ipomoea; assay: Pre-emergent herbicidal action (B.2); conditions: 500 bis 2000 [g/ha], evaluated after 3 weeks
Description: as §1, §2

[12] = test system: Lolium perenne; assay: Pre-emergent herbicidal action (B.2); conditions: 500 bis 2000 [g/ha], evaluated after 3 weeks
Description: as §1, §2

[13] = test system: Sinapis; assay: Pre-emergent herbicidal action (B.2); conditions: 500 bis 2000 [g/ha], evaluated after 3 weeks
Description: as §1, §2

[14] = test system: Solanum nigrum; assay: Pre-emergent herbicidal action (B.2); conditions: 500 bis 2000 [g/ha], evaluated after 3 weeks
Description: as §1, §2

[15] = test system: Sorghum halep.; assay: Pre-emergent herbicidal action (B.2); conditions: 500 bis 2000 [g/ha], evaluated after 3 weeks
Description: as §1, §2

[16] = test system: Stellaria; assay: Pre-emergent herbicidal action (B.2); conditions: 500 bis 2000 [g/ha], evaluated after 3 weeks
Description: as §1, §2

[17] = test system: Veronica Sp.; assay: Pre-emergent herbicidal action (B.2); conditions: 500 bis 2000 [g/ha], evaluated after 3 weeks
Description: as §1, §2

[18] = test system: Abutilon; assay: Post-emergent herbicidal action, contact herbicide (B.3); conditions: 500 bis 2000 [g/ha], 15 days after treatment
Description: as §1, §2
(§3) Eine Anzahl Unkräuter, sowohl monokotyle wie dikotyle, werden nach dem Auflaufen (im 4- bis 6-Blattstadium) mit einer wässrigen Wirkstoffdispersion in einer Dosierung von 2000-500 g Wirksubstanz pro Hektar auf die Pflanzen gespritzt und diese bei 24°-26°C und 45-60 % relativer Luftfeuchtigkeit gehalten. 15 Tage nach der Behandlung wird der Versuch nach dem in Beispiel B.2. gegebenen Massstab bewertet.

[19] = test system: Alopecurus myos.; assay: as above; conditions: 500 bis 2000 [g/ha], 15 days after treatment
Description: as §1, §2, §3

[20] = test system: Amaranthus ret.; assay: as above; conditions: 500 bis 2000 [g/ha], 15 days after treatment
Description: as §1, §2, §3

[21] = test system: Avena fatua; assay: as above; conditions: 500 bis 2000 [g/ha], 15 days after treatment
Description: as §1, §2, §3

[22] = test system: Bromus tectorum; assay: as above; conditions: 500 bis 2000 [g/ha], 15 days after treatment
Description: as §1, §2, §3

[23] = test system: Chenopodium Sp.; assay: as above; conditions: 500 bis 2000 [g/ha], 15 days after treatment
Description: as §1, §2, §3

[24] = test system: Chrysanthe. leuc.; assay: as above; conditions: 500 bis 2000 [g/ha], 15 days after treatment
Description: as §1, §2, §3

[25] = test system: Digitaria sang.; assay: as above; conditions: 500 bis 2000 [g/ha], 15 days after treatment
Description: as §1, §2, §3

[26] = test system: Echinochloa crus galli; assay: as above; conditions: 500 bis 2000 [g/ha], 15 days after treatment
Description: as §1, §2, §3

[27] = test system: Galium aparine; assay: as above; conditions: 500 bis 2000 [g/ha], 15 days after treatment
Description: as §1, §2, §3

[28] = test system: Lolium perenne; assay: as above; conditions: 500 bis 2000 [g/ha], 15 days after treatment
Description: as §1, §2, §3

[29] = test system: Sinapis; assay: as above; conditions: 500 bis 2000 [g/ha], 15 days after treatment
Description: as §1, §2, §3

[30] = test system: Solanum nigrum; assay: as above; conditions: 500 bis 2000 [g/ha], 15 days after treatment
Description: as §1, §2, §3

[31] = test system: Sorghum halep.; assay: as above; conditions: 500 bis 2000 [g/ha], 15 days after treatment
Description: as §1, §2, §3

[32] = test system: Stellaria; assay: as above; conditions: 500 bis 2000 [g/ha], 15 days after treatment
Description: as §1, §2, §3

[33] = test system: Veronica Sp.; assay: as above; conditions: 500 bis 2000 [g/ha], 15 days after treatment
Description: as §1, §2, §3

[34] = test system: Xanthium Sp.; assay: as above; conditions: 500 bis 2000 [g/ha], 15 days after treatment
Description: as §1, §2, §3

SMILES: CC1CCc2nc3c(cc2C1)C(=O)N1C(=O)C(C)(C(C)C)N=C31 (stereo not shown) [Verbindung 3.01, 2,8-Dimethyl-2-isopropyl-7,8,9,10-tetrahydro-3H,5H-imidazo[1',2':1,2]pyrrolo[3,4-b]chinolin-3,5-dion]
- Herbizidwirkung [1]: gute bis sehr gute Herbizidwirkung (Boniturnoten von 1 bis 4 (insbesondere von 1 bis 3) weisen auf eine gute bis sehr gute Herbizidwirkung hin)
- Herbizidwirkung [2]: gute bis sehr gute Herbizidwirkung (Boniturnoten von 1 bis 4 (insbesondere von 1 bis 3) weisen auf eine gute bis sehr gute Herbizidwirkung hin)
- Herbizidwirkung [3]: gute bis sehr gute Herbizidwirkung (Boniturnoten von 1 bis 4 (insbesondere von 1 bis 3) weisen auf eine gute bis sehr gute Herbizidwirkung hin)
- Herbizidwirkung [4]: gute bis sehr gute Herbizidwirkung (Boniturnoten von 1 bis 4 (insbesondere von 1 bis 3) weisen auf eine gute bis sehr gute Herbizidwirkung hin)
- Herbizidwirkung [5]: gute bis sehr gute Herbizidwirkung (Boniturnoten von 1 bis 4 (insbesondere von 1 bis 3) weisen auf eine gute bis sehr gute Herbizidwirkung hin)
- Herbizidwirkung [6]: gute bis sehr gute Herbizidwirkung (Boniturnoten von 1 bis 4 (insbesondere von 1 bis 3) weisen auf eine gute bis sehr gute Herbizidwirkung hin)
- Herbizidwirkung [7]: gute bis sehr gute Herbizidwirkung (Boniturnoten von 1 bis 4 (insbesondere von 1 bis 3) weisen auf eine gute bis sehr gute Herbizidwirkung hin)
- Herbizidwirkung [8]: gute bis sehr gute Herbizidwirkung (Boniturnoten von 1 bis 4 (insbesondere von 1 bis 3) weisen auf eine gute bis sehr gute Herbizidwirkung hin)
- Herbizidwirkung [9]: gute bis sehr gute Herbizidwirkung (Boniturnoten von 1 bis 4 (insbesondere von 1 bis 3) weisen auf eine gute bis sehr gute Herbizidwirkung hin)
- Herbizidwirkung [10]: gute bis sehr gute Herbizidwirkung (Boniturnoten von 1 bis 4 (insbesondere von 1 bis 3) weisen auf eine gute bis sehr gute Herbizidwirkung hin)
- Herbizidwirkung [11]: gute bis sehr gute Herbizidwirkung (Boniturnoten von 1 bis 4 (insbesondere von 1 bis 3) weisen auf eine gute bis sehr gute Herbizidwirkung hin)
- Herbizidwirkung [12]: gute bis sehr gute Herbizidwirkung (Boniturnoten von 1 bis 4 (insbesondere von 1 bis 3) weisen auf eine gute bis sehr gute Herbizidwirkung hin)
- Herbizidwirkung [13]: gute bis sehr gute Herbizidwirkung (Boniturnoten von 1 bis 4 (insbesondere von 1 bis 3) weisen auf eine gute bis sehr gute Herbizidwirkung hin)
- Herbizidwirkung [14]: gute bis sehr gute Herbizidwirkung (Boniturnoten von 1 bis 4 (insbesondere von 1 bis 3) weisen auf eine gute bis sehr gute Herbizidwirkung hin)
- Herbizidwirkung [15]: gute bis sehr gute Herbizidwirkung (Boniturnoten von 1 bis 4 (insbesondere von 1 bis 3) weisen auf eine gute bis sehr gute Herbizidwirkung hin)
- Herbizidwirkung [16]: gute bis sehr gute Herbizidwirkung (Boniturnoten von 1 bis 4 (insbesondere von 1 bis 3) weisen auf eine gute bis sehr gute Herbizidwirkung hin)
- Herbizidwirkung [17]: gute bis sehr gute Herbizidwirkung (Boniturnoten von 1 bis 4 (insbesondere von 1 bis 3) weisen auf eine gute bis sehr gute Herbizidwirkung hin)
- Herbizidwirkung [18]: gute bis sehr gute Herbizidwirkung (Boniturnoten von 1 bis 4 (insbesondere von 1 bis 3) weisen auf eine gute bis sehr gute Herbizidwirkung hin)
- Herbizidwirkung [19]: gute bis sehr gute Herbizidwirkung (Boniturnoten von 1 bis 4 (insbesondere von 1 bis 3) weisen auf eine gute bis sehr gute Herbizidwirkung hin)
- Herbizidwirkung [20]: gute bis sehr gute Herbizidwirkung (Boniturnoten von 1 bis 4 (insbesondere von 1 bis 3) weisen auf eine gute bis sehr gute Herbizidwirkung hin)
- Herbizidwirkung [21]: gute bis sehr gute Herbizidwirkung (Boniturnoten von 1 bis 4 (insbesondere von 1 bis 3) weisen auf eine gute bis sehr gute Herbizidwirkung hin)
- Herbizidwirkung [22]: gute bis sehr gute Herbizidwirkung (Boniturnoten von 1 bis 4 (insbesondere von 1 bis 3) weisen auf eine gute bis sehr gute Herbizidwirkung hin)
- Herbizidwirkung [23]: gute bis sehr gute Herbizidwirkung (Boniturnoten von 1 bis 4 (insbesondere von 1 bis 3) weisen auf eine gute bis sehr gute Herbizidwirkung hin)
- Herbizidwirkung [24]: gute bis sehr gute Herbizidwirkung (Boniturnoten von 1 bis 4 (insbesondere von 1 bis 3) weisen auf eine gute bis sehr gute Herbizidwirkung hin)
- Herbizidwirkung [25]: gute bis sehr gute Herbizidwirkung (Boniturnoten von 1 bis 4 (insbesondere von 1 bis 3) weisen auf eine gute bis sehr gute Herbizidwirkung hin)
- Herbizidwirkung [26]: gute bis sehr gute Herbizidwirkung (Boniturnoten von 1 bis 4 (insbesondere von 1 bis 3) weisen auf eine gute bis sehr gute Herbizidwirkung hin)
- Herbizidwirkung [27]: gute bis sehr gute Herbizidwirkung (Boniturnoten von 1 bis 4 (insbesondere von 1 bis 3) weisen auf eine gute bis sehr gute Herbizidwirkung hin)
- Herbizidwirkung [28]: gute bis sehr gute Herbizidwirkung (Boniturnoten von 1 bis 4 (insbesondere von 1 bis 3) weisen auf eine gute bis sehr gute Herbizidwirkung hin)
- Herbizidwirkung [29]: gute bis sehr gute Herbizidwirkung (Boniturnoten von 1 bis 4 (insbesondere von 1 bis 3) weisen auf eine gute bis sehr gute Herbizidwirkung hin)
- Herbizidwirkung [30]: gute bis sehr gute Herbizidwirkung (Boniturnoten von 1 bis 4 (insbesondere von 1 bis 3) weisen auf eine gute bis sehr gute Herbizidwirkung hin)
- Herbizidwirkung [31]: gute bis sehr gute Herbizidwirkung (Boniturnoten von 1 bis 4 (insbesondere von 1 bis 3) weisen auf eine gute bis sehr gute Herbizidwirkung hin)
- Herbizidwirkung [32]: gute bis sehr gute Herbizidwirkung (Boniturnoten von 1 bis 4 (insbesondere von 1 bis 3) weisen auf eine gute bis sehr gute Herbizidwirkung hin)
- Herbizidwirkung [33]: gute bis sehr gute Herbizidwirkung (Boniturnoten von 1 bis 4 (insbesondere von 1 bis 3) weisen auf eine gute bis sehr gute Herbizidwirkung hin)
- Herbizidwirkung [34]: gute bis sehr gute Herbizidwirkung (Boniturnoten von 1 bis 4 (insbesondere von 1 bis 3) weisen auf eine gute bis sehr gute Herbizidwirkung hin)

From patent publication EP0327492A1, “Herbicidally and plantgrowth regulatory active quinoline and pyrindine compounds” (CIBA-GEIGY AG, priority 1988, dated 1989)
